Measured values: paper PMC3045100, “Cell-Penetrating Penta-Peptides (CPP5s): Measurement of Cell Entry and Protein-Transduction Activity” (Pharmaceuticals, 2010)

Tested on: DAMI cells
Test: Cell-penetration activity of Fam-labeled CPP5s, cellular fluorescence by FACS and/or microscopy
Type: cell-based, human
Conditions: peptides Fam-labeled on the N-terminus, 200 μM, 3 h, 37 °C, fluorescence intensity of cells by FACS, mean of triplicate samples
Description: Figure 1 Cell-penetration activity of CPP5s. a. List of cell-penetrating penta-peptides (CPP5s). […] Peptide sequences are color-coded to show the constant amphipathic amino acid arrangement in each CPP5. Cell-penetration activity was determined by fluorescence intensity of cells (DAMI cells: a human megakaryocytic cancer cell line) incubated with fluorescein (Fam)-labeled peptides (200 μM) for 3 h at 37 °C as described in Experimental Procedures. Fam was labeled on the N-terminus of all peptides examined. Cells were analyzed by FACS and/or microscopy. The activity of each peptide is shown as a percentage of the activity of KLPVM. Each value represents the mean of triplicate samples. Cell entry of some peptides was confirmed by microscopy only, and these peptides are indicated with a ‘+’ without a percentage value. For cytoprotective activity (right column), the information is based on previous studies and the activity was determined by the protection of cells from Bax overexpression and other apoptotic stimuli such as etoposide treatment. b to e. Cell entry of Fam-labeled VPTLK, KLPVM, TAT, and poly-arginine (R8). HeLa cells were incubated with Fam-labeled VPTLK, KLPVM (200 μM), Fam-TAT (10 μM), and Fam-R8 (10 μM) for 1 h at 37 °C. Images are at 20× magnification. f. Comparison of the cytotoxicity of CPP5 and TAT. Primary cultured mouse embryonic fibroblast (MEF) cells were treated with various concentrations of peptides for 24 h as indicated. Then, apoptosis was analyzed as described in Experimental Procedures. Each bar represents the mean of triplicate samples and standard error. TEXT PRINTED IN THE PICTURE: (a) VPMLK: Cell Penetration (%): 97 ± 4.3; Cytoprotection: + | (a) VPTLK: Cell Penetration (%): 61 ± 1.7; Cytoprotection: + | (a) VPALR: Cell Penetration (%): 79 ± 1.5; Cytoprotection: + | (a) VSALK: Cell Penetration (%): 90 ± 3; Cytoprotection: N.D. | (a) PMLKE: Cell Penetration (%): 65 ± 3.7; Cytoprotection: + | (a) VPALK: Cell Penetration (%): 71 ± 2.2; Cytoprotection: + | (a) VSLKK: Cell Penetration (%): +; Cytoprotection: - | (a) VSGKK: Cell Penetration (%): +; Cytoprotection: - | (a) KLPVM: Cell Penetration (%): 100 ± 2.3; Cytoprotection: - | (a) IPMIK: Cell Penetration (%): 47 ± 1.4; Cytoprotection: - | (a) KLGVM: Cell Penetration (%): +; Cytoprotection: - | (a) KLPVT: Cell Penetration (%): +; Cytoprotection: - | (a) VPMIK: Cell Penetration (%): +; Cytoprotection: N.D. | (a) IPALK: Cell Penetration (%): +; Cytoprotection: N.D. | (a) IPMLK: Cell Penetration (%): +; Cytoprotection: N.D. | (a) VPTLQ: Cell Penetration (%): 70 ± 4; Cytoprotection: - | (a) QLPVM: Cell Penetration (%): +; Cytoprotection: - | (a) ELPVM: Cell Penetration (%): +; Cytoprotection: - | (a) VPTLE: Cell Penetration (%): 80 ± 1.9; Cytoprotection: N.D.
CPP5s that were designed based on the Bax-binding domain of Ku70 of several species are named Bax-Inhibiting Peptides (BIPs); they are VPMLK, PMLKE, VPTLK, VPALR, and VPALK. VPMLK and PMLKE were designed from human Ku70, and the same sequence exists in the Ku70 homologues of dog and monkey. VPTLK and VPALR are based on mouse and rat Ku70, respectively. VPALK was designed from cattle Ku70, and the same sequence exists in Ku70 of the African clawed frog. Cytoprotective activities of these BIPs have been previously reported, both in cell culture and animal models. […] The observed variation in cell-entering activity of Fam-labeled-CPP5s is shown in Figure 1a as a percentage of the activity of KLPVM. In all cases, Fam was attached to the N-terminal amino acid. For some CPP5s, cell-penetration activity was confirmed by detection of an intracellular fluorescent signal by microscopy. These latter results are indicated with ‘+’ symbols, and a quantitative comparison with the activity of KLPVM was not performed. […]

Cell Penetration (%), percentage of the activity of KLPVM: 61 ± 1.7%
Substance: VPTLK
